The source of these data is a melting point compilation (Tetko et al.; mined from patent text by program, amines drawn as free bases though some values may be those of a salt).

Structures are written as SMILES. Bounds are passed on as bounds.

The melting point is the temperature of the solid-liquid transition. With `Cc1cc(-n2cncn2)cc2c1NC(=O)CC2`, the melting point is 258 to 259 °C.

With `CCOP(=O)(OCC)c1cc2cc(N)c(C(F)(F)F)cc2[nH]c1=O`, the melting point lay within 240 to 244 °C.

In turn, `CC(=O)Oc1cc(C(=O)O)cc([N+](=O)[O-])c1OC(C)=O` had a melting point of 126 to 127 °C.

`Cc1cc(SC#N)c(C(C)C)cc1O`: the melting point lay within 72 to 75 °C.

In turn, `Cc1ccc2c(c1)C(C=O)c1ccccc1C2C=O` (stereo not given) returned a melting point of 125 to 126 °C.

Regarding `CCOC(=O)C(Cl)=Cc1cc(-n2ncc(C(F)(F)F)cc2=O)ccc1Cl`, the melting point was 98 to 100 °C.

In the case of `O=C1NCCN1C1CCCc2ccccc21` (stereo not given), the melting point lay in the range of 134 to 140 °C.

On to `CCCc1nc(OC)c(NC(=O)N2CCN(c3cccc(O)c3)CC2)cc1C`, for which the melting point lay within 153 to 155 °C.

Molecule `O=[N+]([O-])C1=CN(Cc2ccccc2)C2C([N+](=O)[O-])=CN(Cc3ccccc3)C1N2Cc1ccccc1` returned a melting point of 184 to 185 °C.

The molecule `Cc1c(OCc2ccccc2)c(=O)ccn1CCC(=O)O` came in with a melting point of 81 to 83 °C.

The molecule `CNC(c1cccc(OCOC)c1)C1CCCCC1O` (stereo not given) gave a melting point of 87 to 89 °C.

As to `COC(=O)[C@H](O)[C@@H](NC(=O)OC(C)(C)C)c1ccc(C#N)cc1`, the melting point was 250 °C.

For the molecule `Oc1c(C(O)C(F)(F)F)cnc2c(-c3cc(-c4ccccc4)cs3)cnn12` (stereo not given), the melting point is 265 to 290 °C.

Consider `CC(=O)SCCc1ncn(C(c2ccccc2)(c2ccccc2)c2ccccc2)n1`, for which the melting point lay in the range of 135 to 140 °C.

Molecule `Cc1n[nH]c2cc(-c3nn(C(C)c4oc5ccccc5c(=O)c4-c4cccc(F)c4)c4ncnc(N)c34)ccc12` (stereo not given) displayed a melting point of 158 to 161 °C.

Molecule `COc1cc(Cl)ccc1-c1ccc(C(C)=O)cc1` registered a melting point of 125 to 127 °C.

Turning to `O=C(O)CN1C(=O)C(=Cc2ccc(OCc3ccc(C(F)(F)F)cc3)c(OCc3ccccc3)c2)SC1=S`, the melting point is 257 to 263 °C.

With `CS(=O)(=O)c1ccc(-c2c(-c3ccccc3)[nH]c3ccc(Cl)cc23)cc1`, the melting point is 273 to 275 °C.

On to `Cc1nc(C)c(C(=O)Nc2ccc(-n3nc(C(F)(F)F)cc3C3CC3)cc2)s1`, for which the melting point is 117 to 122 °C.

As to `COc1ccc(/C=C/c2ccncn2)cc1OC1CCCC1`, the melting point was in the range of 83 to 84.5 °C.

`O=C1Nc2c(O)cc(Cl)cc2C(C#CC2CC2)(C(F)(F)F)O1` (single isomer, unassigned; (-)): the melting point lay within 170 to 172 °C.

`CCCc1csc(NS(=O)(=O)c2cccc(Cl)c2C)n1` yielded a melting point of 169 °C.

Molecule `Cc1cc(Cl)c(C(=O)OC(C)c2nc3c(c(=O)n(C)c(=O)n3C)n2C)c(C)n1` (stereo not given) showed a melting point of 168 to 170 °C.

`Cc1cccc(C)c1NCc1nnc(S)n1C`: the melting point is 172 to 173 °C.

`Cc1c(Cc2ccc(C(=O)O)s2)n(S(=O)(=O)c2cccc(C(C)(C)C)c2)c2ccc(C(F)(F)F)cc12` returned a melting point of 171 °C.

`COc1cc2c(cc1OC)CN(CCCSc1ccc(NC(=O)c3cccc4c(=O)c5cccc(OC)c5[nH]c34)cc1)CC2` gave a melting point of 199 °C.

`COc1ccc2nc(C(F)(F)F)c(C(=O)O)c(O)c2c1` displayed a melting point of 256 °C.

As to `CCOC(=O)C1=COc2ccc(OC(C)=O)cc2O1`, the melting point is 66 °C.

Take `O=c1[nH]c2cc(Cl)cc(Cl)c2c(O)c1Sc1ccccc1Br`: the melting point is 285 to 288 °C.

`CN(C)C(=Nc1ccccc1)N(C)N1C(=O)c2ccccc2C1=O` gave a melting point of 146 to 148 °C.

In turn, `O=C(Cn1nnnc1-c1ccsc1)OCCO` returned a melting point of 103 to 106 °C.

The molecule `CS(=O)(=O)c1ccc(C(=O)c2cc(-c3cccnc3)c(N3CCOCC3)s2)cc1` returned a melting point of 147 °C.

Turning to `CCCCCCCCOc1ccc(-c2ccc(C3CCC(CCC)C3)cc2)cc1` (stereo not given), the melting point stood at 84 °C.

`CC(C)(C)c1ccc(-n2c(CC(=O)O)c(C(=O)O)c3cc(Oc4ccc(C(=O)O)cn4)c(Cl)cc32)cc1` displayed a melting point of 223 to 235 °C.

Regarding `Cc1oc(-c2ccccc2)nc1CCC(=O)c1ccc(C=C2SC(=O)NC2=O)nc1`, the melting point fell in the range of 228 to 230 °C.

`COC(=O)CCC#Cc1cc(Cl)ccc1NS(=O)(=O)c1ccc2c(c1)CCN2C(C)=O` yielded a melting point of 154 °C.

As for `O=C(O)c1ccn(C2=CC3=C(CC2)CCc2[nH]c(=O)c(=O)n(O)c23)c1`, the melting point is greater than 300 °C.

In turn, `COC(=O)/C=C/c1ccc(CCC(C)NCC(O)c2cccc(Cl)c2)cc1` (stereo not given) registered a melting point of 87 to 89 °C.

As for `COc1ccc(CCCc2c[nH]c(C(=O)N3CCC[C@@H]3C(=O)N[C@H]3CC(=O)O[C@@H]3OCc3ccccc3)n2)cc1`, the melting point was 62 to 65 °C.

On to `CC=CCN(CCC12CC3CC(CC(C3)C1)C2)C(=O)NCCCc1ccncc1`, for which the melting point is 89.5 to 93.5 °C.

In turn, `Cc1cccc(C)c1N1C(=O)CS/C1=N\C(=O)Nc1ccc(-c2ncn(-c3ccc(OC(F)(F)F)cc3)n2)cc1` gave a melting point of 190 to 196 °C.

Take `Nc1ncnc2c1c(I)cn2C1CC(O)C(CO)O1` (stereo not given): the melting point turned out to be 194 °C.

Take `O=C(O)C(C1CC(=O)N(C(=O)OCC(Cl)(Cl)Cl)O1)N1C(=O)c2ccccc2C1=O` (stereo not given): the melting point was 208 to 210 °C.

In turn, `Nc1ncnc2c1ncn2Cc1oc2ccc(F)cc2c(=O)c1-c1cccc(F)c1` displayed a melting point of 180 to 183 °C.

As for `Cc1cc(-c2ccccc2)c2c(n1)C(C(N)=S)CCC2` (stereo not given), the melting point fell in the range of 174 to 175 °C.

`CC(C)Cn1c(CN2C(=O)c3ccccc3C2=O)c(-c2ccccc2)c2cc(OCc3ccccc3)ccc2c1=O`: the melting point was 113 to 114 °C.

`CN(C)c1ccc(NC(=O)CCC2(c3ccc(Cl)cc3)Nc3cccnc3N2)cc1` (stereo not given) displayed a melting point of 216 to 218 °C.

On to `CC1(CN2CCN(Cc3ccc(C(F)(F)F)cc3)C(=O)C2)Cn2cc([N+](=O)[O-])nc2O1` (stereo not given), for which the melting point is 88 to 93 °C.

Take `COC(=O)c1cc(OCCCN2CCN(c3cccc4sccc34)CC2)n(C)n1`: the melting point was in the range of 109 to 110 °C.

Molecule `CC1Oc2ccc(CN3CCN(CCO)CC3)cc2NC1=O` (stereo not given) displayed a melting point of 174 °C.

`N#Cc1c(N2CCN(C(=O)c3ccco3)CC2)c2cc(F)cnc2n(Cc2cccc(F)c2)c1=O` came in with a melting point of 211 °C.

For `N#Cc1ccc(-c2ccc(-c3ccn([C@H](CC(=O)OCc4ccccc4)C(=O)N[C@H](CO)Cc4ccccc4)c3)cc2)cc1`, the melting point fell in the range of 149 to 150 °C.

The molecule `CCCc1ccccc1OCCCCCOc1coc(C(=O)OC)cc1=O` displayed a melting point of 49 to 50 °C.

`COc1cc(COc2cc(Cn3cncn3)n(-c3ccccc3)n2)ccc1OCc1nc(-c2ccco2)oc1C` registered a melting point of 95 to 96 °C.

Molecule `O=c1[nH]nc(-c2cccc(C(F)(F)F)c2)c2ncccc12` showed a melting point of 210 to 215 °C.

Take `COC(=O)c1ccccc1S(=O)(=O)NC(=O)Nc1nc(F)cc(OC(F)(F)F)n1`: the melting point lay in the range of 157 to 161 °C.

`COC(=O)C(Cc1ccc(O)cc1)c1cc2cc(C#N)ccc2o1` (stereo not given): the melting point was in the range of 110 to 111 °C.

In turn, `CCC(O)(C#CC(O)c1ccc(SC)cc1)CC` (stereo not given) came in with a melting point of 64 to 65 °C.

`COc1cc(C(=O)O)c2oc(-c3ccccc3)cc2c1` came in with a melting point of 185 to 187 °C.

The molecule `CC1COC2(c3ccccc3)c3cc(Cl)ccc3NC(=O)CN12` (stereo not given) showed a melting point of 84 to 98 °C.

Turning to `CCCCCCCCCCCCc1cc2c(s1)NC(=O)CN=C2c1ccccc1Cl`, the melting point was 119 to 121 °C.

Molecule `CSc1ccc(C(=O)c2ccc(F)cc2)[nH]1` returned a melting point of 112 to 113 °C.

In turn, `CC(CNC(=O)c1ccc(Cl)nc1)Cn1ccnc1` (stereo not given) yielded a melting point of 102 to 104 °C.

Consider `COc1ccc(NC(=O)O[C@H]2COC(c3ccccc3)=N[C@@H]2c2ccccc2)cc1` (racemic), for which the melting point came out at 140 °C.

Turning to `COc1ccc(Oc2ccc(C(=O)N(C3CCCC3)C3CCCC3)cc2)cc1OC`, the melting point came out at 180 °C.

Take `Cc1cccc2c1N(Cc1c[nH]cn1)C(=O)C(NC(=O)Nc1cccc(-c3nnn[nH]3)c1)N=C2C1CCCCC1` (stereo not given): the melting point was 168 to 179 °C.

For `COc1ccc(N2CCN(c3c(C)c(C)c4c(c3C)C(OCc3ccc(C(=O)O)cc3)C(C)(C)O4)CC2)cc1` (stereo not given), the melting point is 162 to 163 °C.

As for `Cc1nc2c(N)nc(-c3ccncc3)nc2[nH]1`, the melting point was greater than 310 °C.

The molecule `CCOC(=O)C(=O)Cc1c[nH]c2ccc(OCc3ccccc3)cc12` had a melting point of 169 to 170 °C.

Take `CCSc1nccc(C)c1N`: the melting point lay in the range of 37 to 38 °C.

Regarding `CS(=O)(=O)c1nccc(Oc2ccccc2)n1`, the melting point was 113 to 116 °C.

As for `CC(=O)N(O)C(C)c1csc2ccccc12` (stereo not given), the melting point was 123 to 125 °C.

The molecule `O=C(O)Cc1cc(C(=O)c2ccc(Br)cc2)sc1-c1ccccc1` displayed a melting point of 147 to 150 °C.

The molecule `O=C(Nc1ccc(Oc2ccc(Br)cc2)nc1)c1ccccc1C(c1ccc(O)cc1)c1ccc(O)cc1` came in with a melting point of 218 to 223 °C.

As to `Cc1nc(N2CCC(Cc3ccc(F)cc3)C2=O)sc1C(=O)NCc1cccnc1` (stereo not given), the melting point is 169 to 170 °C.

`O=C(NO)c1cc2ccccc2cn1` came in with a melting point of 160 to 165 °C.

On to `NC(=O)N1C(=O)C(=C(OC(=O)c2ccco2)c2cccs2)c2cc(F)c(Cl)cc21`, for which the melting point fell in the range of 215 to 216 °C.

Take `COc1cccc2c1CCC(C#N)C2O` (stereo not given): the melting point lay in the range of 96 to 98 °C.

`CN1CC(C(C#N)(c2ccccc2)c2ccccc2)C1` yielded a melting point of 113 to 115 °C.

The molecule `CCCCCCCCCCCC(=O)NNC(=O)c1ccccc1O` registered a melting point of 158 °C.

`CCOC(=O)c1ccc2c(c1)sc1cc(Cl)ccc12`: the melting point was 120 to 122 °C.

`Cc1ccc([N+](=O)[O-])cc1S(=O)(=O)n1c(Br)nc(Br)c1C` registered a melting point of 187 to 189 °C.

For `O=c1nc(NCc2ccccc2)sc2c([N+](=O)[O-])cc(C(F)(F)F)cc12`, the melting point was in the range of 192 to 194 °C.

Turning to `O=c1cc(N2CCOCC2)[nH]c2c(-c3ccc([N+](=O)[O-])c4c3oc3ccccc34)cccc12`, the melting point was 247 °C.

In turn, `O=c1c2c(Cc3ccccc3)n[nH]c2c2ccccc2n1-c1ccccc1` showed a melting point of 255 to 257 °C.
